Legend:
[1] = molecular target: T1, CD73 enzymatic activity expressed on the cell surface of MDA-MB-231 cells (Homo sapiens, UniProt P21589); test: Inhibition of CD73 enzymatic activity on the cell surface (Cell Titer Glo (CTG) experiment), MDA-MB-231 cells; format: cell-based; details: MDA-MB-231 cells endogenously expressing CD73, AMP, 37° C. for 2 hours, CTG readout; read-out: Cellular activity IC50
T1 construct: Human breast cancer cells MDA-MB-231 that endogenously express CD73 were used; host or cells: MDA-MB-231
T1 sequence (P21589 27-549): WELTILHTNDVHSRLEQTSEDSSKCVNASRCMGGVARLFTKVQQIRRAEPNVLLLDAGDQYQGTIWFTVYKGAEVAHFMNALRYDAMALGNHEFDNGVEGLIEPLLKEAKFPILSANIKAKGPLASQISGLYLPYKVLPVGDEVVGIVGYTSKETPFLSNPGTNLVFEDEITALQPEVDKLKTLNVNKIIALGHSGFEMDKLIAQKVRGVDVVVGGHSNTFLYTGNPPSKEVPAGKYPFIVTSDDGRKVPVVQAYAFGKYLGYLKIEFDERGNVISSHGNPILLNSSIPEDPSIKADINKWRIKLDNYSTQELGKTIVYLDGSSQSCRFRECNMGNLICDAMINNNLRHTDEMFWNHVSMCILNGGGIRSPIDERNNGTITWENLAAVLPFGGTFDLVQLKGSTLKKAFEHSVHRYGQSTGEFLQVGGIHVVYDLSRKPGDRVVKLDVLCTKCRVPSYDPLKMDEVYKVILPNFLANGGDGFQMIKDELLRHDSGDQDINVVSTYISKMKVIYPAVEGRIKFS
Experimental: Human breast cancer cells MDA-MB-231 that endogenously express CD73 were used in the present invention to evaluate the inhibition of the compound against the CD73 enzymatic activity expressed on the cell surface. The cells used were from the Cell Bank of the Chinese Academy of Sciences. The specific experimental procedures were as follows:
1. Before the test, MDA-MB231 cells were seeded to a 96-well plate at 20000 cells/well;
2. In RPMI1640, 10% fetal bovine serum (Gibco, 10099-141), placed in a 5% CO2 incubator at 37° C. overnight (the cells were washed three times by using a serum-free RPMI medium right before the test):
3. 50 μl of serum-free media containing the compounds at different concentrations were added to the cells and incubated for 15 minutes;
4. 25 μL of 1.2 mM AMP was added for incubation at 37° C. for 2 hours, 25 μL of supernatant was then collected from the cells and mix with 25 μL of 100 μM ATP, and then the concentration of AMP in the samples was determined by CTG (Promega, #G7573);
5. Then, a reduction ratio of the substrate AMP level in the cell culture supernatant collected after the reaction was quantitatively determined to evaluate the inhibitory effects of the examples of the present invention and the positive compounds against the CD73 enzymatic activity on the cell surface;
6. Finally, the concentration of the compound leading to half maximal inhibition of enzymatic activity (IC50) was determined using a four-parameter non-linear logistic model curve fit in Graphpad Prism.

CD73 = molecular target: T2, CD73 (Homo sapiens, UniProt P21589); test: In vitro enzymatic activity against CD73 (malachite green test using soluble CD73); format: biochemical; details: soluble CD73 36 ng/mL, 50 μM AMP, 30 minutes at 25° C.
T2 construct: purchased R&D systems 5795-EN-010
T2 sequence (P21589 27-547 limits assumed): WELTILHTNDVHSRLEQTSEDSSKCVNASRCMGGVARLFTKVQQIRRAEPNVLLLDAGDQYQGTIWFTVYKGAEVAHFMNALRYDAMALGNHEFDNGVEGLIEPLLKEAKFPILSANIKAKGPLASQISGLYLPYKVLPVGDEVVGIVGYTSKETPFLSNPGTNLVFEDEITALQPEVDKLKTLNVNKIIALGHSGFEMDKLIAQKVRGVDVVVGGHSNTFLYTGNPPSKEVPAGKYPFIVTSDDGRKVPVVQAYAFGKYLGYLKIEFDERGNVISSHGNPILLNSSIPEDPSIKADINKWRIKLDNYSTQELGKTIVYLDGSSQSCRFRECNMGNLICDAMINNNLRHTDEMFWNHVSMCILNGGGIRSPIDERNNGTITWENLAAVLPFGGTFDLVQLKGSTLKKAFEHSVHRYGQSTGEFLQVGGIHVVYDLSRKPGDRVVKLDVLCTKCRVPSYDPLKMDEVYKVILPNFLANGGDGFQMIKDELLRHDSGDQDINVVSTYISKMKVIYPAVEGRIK
Experimental: The malachite green test using soluble CD73, which is synthesized in vitro was used in the present invention to determine the characteristics of inhibitory activity of the compounds against CD73. The specific experimental procedures were as following:
1. The enzyme reaction in this experiment was carried out in 384-well plates, and CD73 (R&D systems #5795-EN-010) at a concentration of 36 ng/mL, the compounds at different concentrations and 50 μM AMP were incubated for 30 minutes at 25° C. in a 40 uL reaction system (consisting of 25 mM Tris pH 7.5, 5 mM MgCl2, and 0.005% Tween-20);
2. Then, 10 μL of malachite green solution (Sigma) was added to each well to terminate the reaction;
3. The concentration of resulting inorganic phosphate was determined according to the instructions of the reagent manufacturer;
4. The enzymatic activity of CD73 was calculated based on the concentration of the product, and then IC50 values were determined by non-linear regression analysis of the inhibition percentage of the compounds of the present invention at different concentrations.

Structure (SMILES) | IC50 [1] [nM] | IC50 (CD73) [nM]
O=P(O)(O)CP(=O)(O)OC[C@H]1C[C@@H](c2ccc3c(N[C@@H]4CCc5ccccc54)nc(Cl)nn23)[C@H](O)[C@@H]1O [Example 25, (((((1R,2R,3S,4S)-4-(2-chloro-4-(((R)-2,3-dihydro-1H-inden-1-yl)amino)pyrrolo[2,1-f][1,2,4]triazin-7-yl)-2,3-dihydroxycyclopentyl)methoxy)(hydroxy)phosphoryl)methyl)phosphonic acid] | 0.55 | 5.5
O=P(O)(O)CP(=O)(O)OC[C@H]1C[C@@H](c2ccc3c(N[C@H]4CCc5cc(F)ccc54)nc(Cl)nn23)[C@H](O)[C@@H]1O [Example 27, (((((1R,2R,3S,4S)-4-(2-chloro-4-(((S)-5-fluoro-2,3-dihydro-1H-inden-1-yl)amino)pyrrolo[2,1-f][1,2,4]triazin-7-yl)-2,3-dihydroxycyclopentyl)methoxy)(hydroxy)phosphoryl)methyl)phosphonic acid] | 2.54 | 82.6
O=P(O)(O)CP(=O)(O)OC[C@H]1C[C@@H](c2ccc3c(N[C@@H]4CCc5cc(F)ccc54)nc(Cl)nn23)[C@H](O)[C@@H]1O [Example 28, (((((1R,2R,3S,4S)-4-(2-chloro-4-(((R)-5-fluoro-2,3-dihydro-1H-inden-1-yl)amino)pyrrolo[2,1-f][1,2,4]triazin-7-yl)-2,3-dihydroxycyclopentyl)methoxy)(hydroxy)phosphoryl)methyl)phosphonic acid] | 0.252 | 3.95
O=P(O)(O)CP(=O)(O)OC[C@H]1C[C@@H](c2ccc3c(N[C@H]4CCc5ccc(F)cc54)nc(Cl)nn23)[C@H](O)[C@@H]1O [Example 29, (((((1R,2R,3S,4S)-4-(2-chloro-4-(((S)-6-fluoro-2,3-dihydro-1H-inden-1-yl)amino)pyrrolo[2,1-f][1,2,4]triazin-7-yl)-2,3-dihydroxycyclopentyl)methoxy)(hydroxy)phosphoryl)methyl)phosphonic acid] | 0.71 | 15
O=P(O)(O)CP(=O)(O)OC[C@H]1C[C@@H](c2ccc3c(N[C@@H]4CCc5ccc(F)cc54)nc(Cl)nn23)[C@H](O)[C@@H]1O [Example 30, (((((1R,2R,3S,4S)-4-(2-chloro-4-(((R)-6-fluoro-2,3-dihydro-1H-inden-1-yl)amino)pyrrolo[2,1-f][1,2,4]triazin-7-yl)-2,3-dihydroxycyclopentyl)methoxy)(hydroxy)phosphoryl)methyl)phosphonic acid] | 0.19 | 3.4
O=P(O)(O)CP(=O)(O)OC[C@H]1C[C@@H](c2ccc3c(N[C@H]4CCc5cc(F)c(F)cc54)nc(Cl)nn23)[C@H](O)[C@@H]1O [Example 31, (((((1R,2R,3S,4S)-4-(2-chloro-4-(((S)-5,6-difluoro-2,3-dihydro-1H-inden-1-yl)amino)pyrrolo[2,1-f][1,2,4]triazin-7-yl)-2,3-dihydroxycyclopentyl)methoxy)(hydroxy)phosphoryl)methyl)phosphonic acid] | 0.95 | 48.6
O=P(O)(O)CP(=O)(O)OC[C@H]1C[C@@H](c2ccc3c(N[C@@H]4CCc5cc(F)c(F)cc54)nc(Cl)nn23)[C@H](O)[C@@H]1O [Example 32, (((((1R,2R,3S,4S)-4-(2-chloro-4-(((R)-5,6-difluoro-2,3-dihydro-1H-inden-1-yl)amino)pyrrolo[2,1-f][1,2,4]triazin-7-yl)-2,3-dihydroxycyclopentyl)methoxy)(hydroxy)phosphoryl)methyl)phosphonic acid] | 0.27 | 4.08
O=P(O)(O)CP(=O)(O)OC[C@H]1C[C@@H](c2ccc3c(N[C@H]4CCc5cc(F)cc(F)c54)nc(Cl)nn23)[C@H](O)[C@@H]1O [Example 33, (((((1R,2R,3S,4S)-4-(2-chloro-4-(((S)-5,7-difluoro-2,3-dihydro-1H-inden-1-yl)amino)pyrrolo[2,1-f][1,2,4]triazin-7-yl)-2,3-dihydroxycyclopentyl)methoxy)(hydroxy)phosphoryl)methyl)phosphonic acid] | 2.4 | 27.9
O=P(O)(O)CP(=O)(O)OC[C@H]1C[C@@H](c2ccc3c(N[C@@H]4CCc5cc(F)cc(F)c54)nc(Cl)nn23)[C@H](O)[C@@H]1O [Example 34, (((((1R,2R,3S,4S)-4-(2-chloro-4-(((R)-5,7-difluoro-2,3-dihydro-1H-inden-1-yl)amino)pyrrolo[2,1-f][1,2,4]triazin-7-yl)-2,3-dihydroxycyclopentyl)methoxy)(hydroxy)phosphoryl)methyl)phosphonic acid] | 0.22 | 1.01
O=P(O)(O)CP(=O)(O)OC[C@H]1C[C@@H](c2ccc3c(N[C@H]4CCc5ccc(C(F)(F)F)cc54)nc(Cl)nn23)[C@H](O)[C@@H]1O [Example 35, (((((1R,2R,3S,4S)-4-(2-chloro-4-(((S)-6-(trifluoromethyl)-2,3-dihydro-1H-inden-1-yl)amino)pyrrolo[2,1-f][1,2,4]triazin-7-yl)-2,3-dihydroxycyclopentyl)methoxy)(hydroxy)phosphoryl)methyl)phosphonic acid] | 5.73 | 354
O=P(O)(O)CP(=O)(O)OC[C@H]1C[C@@H](c2ccc3c(N[C@@H]4CCc5ccc(C(F)(F)F)cc54)nc(Cl)nn23)[C@H](O)[C@@H]1O [Example 36, (((((1R,2R,3S,4S)-4-(2-chloro-4-(((R)-6-(trifluoromethyl)-2,3-dihydro-1H-inden-1-yl)amino)pyrrolo[2,1-f][1,2,4]triazin-7-yl)-2,3-dihydroxycyclopentyl)methoxy)(hydroxy)phosphoryl)methyl)phosphonic acid] | 0.63 | 21.7
O=P(O)(O)CP(=O)(O)OC[C@H]1C[C@@H](c2ccc3c(N[C@H]4CCc5cc(Cl)ccc54)nc(Cl)nn23)[C@H](O)[C@@H]1O [Example 37, (((((1R,2R,3S,4S)-4-(2-chloro-4-(((S)-5-chloro-2,3-dihydro-1H-inden-1-yl)amino)pyrrolo[2,1-f][1,2,4]triazin-7-yl)-2,3-dihydroxycyclopentyl)methoxy)(hydroxy)phosphoryl)methyl)phosphonic acid] | 60 | > 1000
O=P(O)(O)CP(=O)(O)OC[C@H]1C[C@@H](c2ccc3c(N[C@@H]4CCc5cc(Cl)ccc54)nc(Cl)nn23)[C@H](O)[C@@H]1O [Example 38, (((((1R,2R,3S,4S)-4-(2-chloro-4-(((R)-5-chloro-2,3-dihydro-1H-inden-1-yl)amino)pyrrolo[2,1-f][1,2,4]triazin-7-yl)-2,3-dihydroxycyclopentyl)methoxy)(hydroxy)phosphoryl)methyl)phosphonic acid] | 0.266 | 7.8

Source: patent publication US12157755B2, “CD73 inhibitor, preparation method therefor and application thereof” (Abbisko Therapeutics Co., Ltd., priority 2019, dated 2024)
